How the values were obtained:
[1] = Concentration required to inhibit DNA dependent RNA polymerase was determined from calf thymus
[2] = Concentration required to inhibit RNA dependent RNA polymerase was determined from polio virus
[3] = as above; remark: listed apart in the source

Compound	IC50 [1]	IC50 [2]	IC50 [3]
Nc1ccc2[nH]cc(C[C@H](NC(=O)c3ccc4c(c3)nc(-c3ccoc3)n4C3CCCCC3)C(=O)O)c2c1 [(S)-3-(5-Amino-1H-indol-3-yl)-2-[(1-cyclohexyl-2-furan-3-yl-1H-benzoimidazole-5-carbonyl)-amino]-propionic acid]	> 250 µM	> 500 µM	–
CS(=O)(=O)Nc1ccc2[nH]cc(C[C@H](NC(=O)c3ccc4c(c3)nc(-c3ccoc3)n4C3CCCCC3)C(=O)O)c2c1 [(S)-2-[(1-Cyclohexyl-2-furan-3-yl-1H-benzoimidazole-5-carbonyl)-amino]-3-(5-methanesulfonylamino-1H-indol-3-yl)-propionic acid]	–	–	> 500 µM
NC(=O)c1ccc2[nH]cc(C[C@H](NC(=O)c3ccc4c(c3)nc(-c3ccoc3)n4C3CCCCC3)C(=O)O)c2c1 [(S)-3-(5-Carbamoyl-1H-indol-3-yl)-2-[(1-cyclohexyl-2-furan-3-yl-1H-benzoimidazole-5-carbonyl)-amino]-propionic acid]	> 250 µM	–	> 200 µM
O=C(O)C(=O)Nc1ccc2[nH]cc(C[C@H](NC(=O)c3ccc4c(c3)nc(-c3ccoc3)n4C3CCCCC3)C(=O)O)c2c1 [(S)-2-[(1-Cyclohexyl-2-furan-3-yl-1H-benzoimidazole-5-carbonyl)-amino]-3-[5-(oxalyl-amino)-1H-indol-3-yl]-propionic acid]	> 250 µM	> 250 µM	–
O=C(N[C@@H](Cc1c[nH]c2ccc(NS(=O)(=O)C(F)(F)F)cc12)C(=O)O)c1ccc2c(c1)nc(-c1ccoc1)n2C1CCCCC1 [(S)-2-[(1-Cyclohexyl-2-furan-3-yl-1H-benzoimidazole-5-carbonyl)-amino]-3-(5-trifluoromethanesulfonylamino-1H-indol-3-yl)-propionic acid]	> 250 µM	–	> 250 µM
CC(C)(Oc1ccc2[nH]cc(C[C@H](NC(=O)c3ccc4c(c3)nc(-c3ccoc3)n4C3CCCCC3)C(=O)O)c2c1)C(=O)O [(S)-3-[5-(1-Carboxy-1-methyl-ethoxy)-1H-indol-3-yl]-2-[(1-cyclohexyl-2-furan-3-yl-1H-benzoimidazole-5-carbonyl)-amino]-propionic acid]	–	–	> 200 µM
O=C(O)COc1ccc2[nH]cc(C[C@H](NC(=O)c3ccc4c(c3)nc(-c3ccoc3)n4C3CCCCC3)C(=O)O)c2c1 [(S)-3-(5-(carboxymethoxy)-1H-indol-3-yl)-2-(1-cyclohexyl-2-(furan-3-yl)-1H-benzo[d]imidazole-5-carboxamido)propanoic acid]	> 200 µM	100 µM	–
O=C(N[C@@H](Cc1c[nH]c2ccc(O)cc12)C(=O)O)c1ccc2c(c1)nc(-c1ccoc1)n2C1CCCCC1 [(S)-2-[(1-Cyclohexyl-2-furan-3-yl-1H-benzoimidazole-5-carbonyl)-amino]-3-(5-hydroxy-1H-indol-3-yl)-propionic acid]	> 200 µM	79 µM	–
CC(=O)Nc1ccc2[nH]cc(C[C@H](NC(=O)c3ccc4c(c3)nc(-c3ccoc3)n4C3CCCCC3)C(=O)O)c2c1 [(S)-3-(5-Acetylamino-1H-indol-3-yl)-2-[(1-cyclohexyl-2-furan-3-yl-1H-benzoimidazole-5-carbonyl)-amino]-propionic acid]	> 250 µM	–	> 125 µM
O=C(O)c1ccc2[nH]cc(C[C@H](NC(=O)c3ccc4c(c3)nc(-c3ccoc3)n4C3CCCCC3)C(=O)O)c2c1 [3-{(S)-2-Carboxy-2-[(1-cyclohexyl-2-furan-3-yl-1H-benzoimidazole-5-carbonyl)-amino]-ethyl}-1H-indole-5-carboxylic acid]	> 250 µM	–	> 200 µM
O=C(N[C@@H](Cc1c[nH]c2ccc(-c3nnn[nH]3)cc12)C(=O)O)c1ccc2c(c1)nc(-c1ccoc1)n2C1CCCCC1 [(S)-2-[(1-Cyclohexyl-2-furan-3-yl-1H-benzoimidazole-5-carbonyl)-amino]-3-[5-(5H-tetrazol-5-yl)-1H-indol-3-yl]-propionic acid]	> 250 µM	> 200 µM	–
